These results are taken from US20240190880A1 (THE REGENTS OF THE UNIVERSITY OF MICHIGAN, priority 2021, published 2024).

In general, DC50 refers to the concentration at which degradation of the target reaches its halfway point.

One assay addresses T1, ER (Homo sapiens, UniProt P03372).
T1 construct: host or cells: T47D and MCF7 human breast cancer cells
T1 sequence (P03372 1-595): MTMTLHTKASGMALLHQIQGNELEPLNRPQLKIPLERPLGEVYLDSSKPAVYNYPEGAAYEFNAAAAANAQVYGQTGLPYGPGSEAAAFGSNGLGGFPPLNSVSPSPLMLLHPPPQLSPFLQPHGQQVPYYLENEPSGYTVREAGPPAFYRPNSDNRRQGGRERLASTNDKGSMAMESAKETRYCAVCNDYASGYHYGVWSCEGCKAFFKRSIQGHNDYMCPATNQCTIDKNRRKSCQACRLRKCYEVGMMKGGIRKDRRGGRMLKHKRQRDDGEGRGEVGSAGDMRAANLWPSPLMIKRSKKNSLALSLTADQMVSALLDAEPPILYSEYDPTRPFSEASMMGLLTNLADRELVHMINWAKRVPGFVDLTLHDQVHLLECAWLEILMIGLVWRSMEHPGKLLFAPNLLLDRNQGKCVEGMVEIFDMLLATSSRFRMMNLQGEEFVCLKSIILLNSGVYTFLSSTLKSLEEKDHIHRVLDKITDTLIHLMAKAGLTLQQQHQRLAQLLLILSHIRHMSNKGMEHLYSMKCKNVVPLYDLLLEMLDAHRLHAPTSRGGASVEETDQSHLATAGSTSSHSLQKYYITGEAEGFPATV
The experiment in a line: ER degradation activity, in-cell western blot analysis in T47D cells. The format is cell-based. As to conditions: 16 hours, Table A does not say which cell line (T47D or MCF7), read-out: Potency (DC50). The gist of the method: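 T47D cells grown in DMEM with 10% FBS were treated with compounds for 16 hours at 0.5% DMSO final. ER was detected by in-cell western using 680/800 near-infrared secondary antibodies. Residual ER is given as percent of untreated and DMSO-treated wells set to 100%.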
Consider `C[C@@H]1Cc2c([nH]c3ccccc23)[C@@H](c2ccc(C3CCC(C(=O)N4CCC(N5Cc6cc7c(cc6C5)C(=O)N(C5CCC(=O)NC5=O)C7=O)CC4)CC3)cc2F)N1CC(F)F` (stereo partly drawn) [E 312, 6-(1-(4-(4-((1R,3R)-2-(2,2-difluoroethyl)-3-methyl-2,3,4,9-tetrahydro-1H-pyrido[3,4-b]indol-1-yl)-3-fluorophenyl)cyclohexane-1-carbonyl)piperidin-4-yl)-2-(2,6-dioxopiperidin-3-yl)-6,7-dihydropyrrolo[3,4-f]isoindole-1,3(2H,5H)-dione], for which the DC50 fell in the range of 10 to 100 nM. On the same count and under the same terms, to `O=C1CCC(N2C(=O)c3cc4c(cc3C2=O)CN(CC(=O)N2CCC3(CC2)CCN(c2ccc(C(=C(CCCl)c5ccccc5)c5ccc(O)cc5)cc2)C3)C4)C(=O)N1` (stereo not shown) [E 190, 6-(2-(2-(4-(4-chloro-1-(4-hydroxyphenyl)-2-phenylbut-1-en-1-yl)phenyl)-2,8-diazaspiro[4.5]decan-8-yl)-2-oxoethyl)-2-(2,6-dioxopiperidin-3-yl)-6,7-dihydropyrrolo[3,4-f]isoindole-1,3(2H,5H)-dione] belongs 10 to 100 nM; to `C[C@@H]1Cc2c([nH]c3ccccc23)[C@@H](c2c(F)cc(N3CC4(CC(C(=O)N5CCC(N6Cc7cc8c(cc7C6)C(=O)N(C6CCC(=O)NC6=O)C8=O)CC5)C4)C3)cc2F)N1CC(F)F` (stereo partly drawn) [E 116, 6-(1-(2-(4-((1R,3R)-2-(2,2-difluoroethyl)-3-methyl-2,3,4,9-tetrahydro-1H-pyrido[3,4-b]indol-1-yl)-3,5-difluorophenyl)-2-azaspiro[3.3]heptane-6-carbonyl)piperidin-4-yl)-2-(2,6-dioxopiperidin-3-yl)-6,7-dihydropyrrolo[3,4-f]isoindole-1,3(2H,5H)-dione], less than 10 nM; to `C[C@@H]1Cc2c([nH]c3ccccc23)[C@@H](c2c(F)cc(N3CCN(CCN4Cc5cc6c(cc5C4)C(=O)N(C4CCC(=O)NC4=O)C6)CC3)cc2F)N1CC(F)F` (stereo partly drawn) [E 54, 3-(6-(2-(4-(4-((1R,3R)-2-(2,2-difluoroethyl)-3-methyl-2,3,4,9-tetrahydro-1H-pyrido[3,4-b]indol-1-yl)-3,5-difluorophenyl)piperazin-1-yl)ethyl)-1-oxo-3,5,6,7-tetrahydropyrrolo[3,4-f]isoindol-2(1H)-yl)piperidine-2,6-dione], 10 to 100 nM. Consider `O=C1CCC(N2Cc3cc4c(cc3C2=O)CN(C(=O)[C@H]2CC[C@@H](N3CC(Oc5ccc([C@@H]6c7ccc(O)cc7CC[C@@H]6c6ccccc6)cc5)C3)CC2)C4)C(=O)N1` (single isomer, unassigned) [E 358], for which the 50% degradation concentration (DC50) is more than 100 nM. On to `C[C@@H]1Cc2cc(O)ccc2[C@@H](c2c(F)cc(N3CC4(CCN(C(=O)CN5Cc6cc7c(cc6C5)C(=O)N(C5CCC(=O)NC5=O)C7=O)CC4)C3)cc2F)N1CC(F)F` (stereo partly drawn) [E 45, 6-(2-(2-(4-((1S,3R)-2-(2,2-difluoroethyl)-6-hydroxy-3-methyl-1,2,3,4-tetrahydroisoquinolin-1-yl)-3,5-difluorophenyl)-2,7-diazaspiro[3.5]nonan-7-yl)-2-oxoethyl)-2-(2,6-dioxopiperidin-3-yl)-6,7-dihydropyrrolo[3,4-f]isoindole-1,3(2H,5H)-dione], for which the half-maximal degradation concentration (DC50) is less than 10 nM. As to `C[C@@H]1Cc2c([nH]c3ccccc23)[C@@H](c2c(F)cc(N3CC(C(=O)N4CC(N5Cc6cc7c(cc6C5)C(=O)N(C5CCC(=O)NC5=O)C7=O)C4)C3)cc2F)N1CC(F)F` (stereo partly drawn) [E 229, 6-(1-(1-(4-((1R,3R)-2-(2,2-difluoroethyl)-3-methyl-2,3,4,9-tetrahydro-1H-pyrido[3,4-b]indol-1-yl)-3,5-difluorophenyl)azetidine-3-carbonyl)azetidin-3-yl)-2-(2,6-dioxopiperidin-3-yl)-6,7-dihydropyrrolo[3,4-f]isoindole-1,3(2H,5H)-dione], the DC50 was 10 to 100 nM. On the same count and under the same terms, in the case of `O=C1CCC(N2C(=O)c3cc4c(cc3C2=O)CN(CCN2CCC3(CC2)CCN(c2ccc([C@@H]5c6ccc(O)cc6CC[C@@H]5c5ccccc5)cc2)CC3)C4)C(=O)N1` (mixture of isomers) [E 268, rac-2-(2,6-dioxopiperidin-3-yl)-6-(2-(9-(4-((1R,2S)-6-hydroxy-2-phenyl-1,2,3,4-tetrahydronaphthalen-1-yl)phenyl)-3,9-diazaspiro[5.5]undecan-3-yl)ethyl)-6,7-dihydropyrrolo[3,4-f]isoindole-1,3(2H,5H)-dione] it was 10 to 100 nM.

Regarding `C[C@@H]1Cc2c([nH]c3ccccc23)[C@@H](c2c(F)cc(N3CCC(N4CCC(CN5Cc6cc7c(cc6C5)C(=O)N(C5CCC(=O)NC5=O)C7=O)CC4)C3)cc2F)N1CC(F)F` (stereo partly drawn) [E 124, 6-((1-(1-(4-((1R,3R)-2-(2,2-difluoroethyl)-3-methyl-2,3,4,9-tetrahydro-1H-pyrido[3,4-b]indol-1-yl)-3,5-difluorophenyl)pyrrolidin-3-yl)piperidin-4-yl)methyl)-2-(2,6-dioxopiperidin-3-yl)-6,7-dihydropyrrolo[3,4-f]isoindole-1,3(2H,5H)-dione], the DC50 was more than 100 nM. Same read-out and setting: to `C[C@@H]1Cc2cc(O)ccc2[C@@H](c2ccc(C3CCC(C(=O)N4CCC(N5Cc6cc7c(cc6C5)C(=O)N(C5CCC(=O)NC5=O)C7=O)CC4)CC3)cc2F)N1CC(F)F` (stereo partly drawn) [E 317, 6-(1-(4-(4-((1S,3R)-2-(2,2-difluoroethyl)-6-hydroxy-3-methyl-1,2,3,4-tetrahydroisoquinolin-1-yl)-3-fluorophenyl)cyclohexane-1-carbonyl)piperidin-4-yl)-2-(2,6-dioxopiperidin-3-yl)-6,7-dihydropyrrolo[3,4-f]isoindole-1,3(2H,5H)-dione] belongs 10 to 100 nM.

As to `O=C1CCC(N2C(=O)c3cc4c(cc3C2=O)CN(C(=O)CN2CCC3(CC2)CCN(c2c(F)cc([C@@H]5c6ccc(O)cc6CC[C@@H]5c5ccccc5)cc2F)C3)C4)C(=O)N1` (mixture of isomers) [E 155, Rac-6-(2-(2-(2,6-difluoro-4-((1R,2S)-6-hydroxy-2-phenyl-1,2,3,4-tetrahydronaphthalen-1-yl)phenyl)-2,8-diazaspiro[4.5]decan-8-yl)acetyl)-2-(2,6-dioxopiperidin-3-yl)-6,7-dihydropyrrolo[3,4-f]isoindole-1,3(2H,5H)-dione], the 50% degradation concentration (DC50) is more than 100 nM. In the case of `CCC(=C(c1ccc(O)cc1)c1ccc(N2CCC3(CCN(C(=O)CN4Cc5cc6c(cc5C4)C(=O)N(C4CCC(=O)NC4=O)C6=O)CC3)C2)cc1)c1ccccc1` (stereo not shown) [E 189, 2-(2,6-dioxopiperidin-3-yl)-6-(2-(2-(4-(1-(4-hydroxyphenyl)-2-phenylbut-1-en-1-yl)phenyl)-2,8-diazaspiro[4.5]decan-8-yl)-2-oxoethyl)-6,7-dihydropyrrolo[3,4-f]isoindole-1,3(2H,5H)-dione], the DC50 lay in the range of 10 to 100 nM. With `O=C1CCC(N2C(=O)c3cc4c(cc3C2=O)CN(CC(=O)N2CC3(CC(Oc5ccc([C@@H]6c7ccc(O)cc7CC[C@H]6c6ccccc6)cc5)C3)C2)C4)C(=O)N1` (stereo partly drawn) [E 221, 2-(2,6-dioxopiperidin-3-yl)-6-(2-(6-(4-((1R,2R)-6-hydroxy-2-phenyl-1,2,3,4-tetrahydronaphthalen-1-yl)phenoxy)-2-azaspiro[3.3]heptan-2-yl)-2-oxoethyl)-6,7-dihydropyrrolo[3,4-f]isoindole-1,3(2H,5H)-dione], the 50% degradation concentration (DC50) is more than 100 nM.

Take `O=C1CCC(N2C(=O)c3cc4c(cc3C2=O)CCN(C(=O)CN2CC3(CCN(c5ccc([C@@H]6c7ccc(O)cc7CC[C@@H]6c6ccccc6)cc5)CC3)C2)CC4)C(=O)N1` (stereo partly drawn) [E 170, 2-(2,6-dioxopiperidin-3-yl)-7-(2-(7-(4-((1R,2S)-6-hydroxy-2-phenyl-1,2,3,4-tetrahydronaphthalen-1-yl)phenyl)-2,7-diazaspiro[3.5]nonan-2-yl)acetyl)-6,7,8,9-tetrahydroazepino[4,5-f]isoindole-1,3(2H,5H)-dione]: the DC50 is more than 100 nM.

Still in this assay, the particulars now being: compounds 16 hours, Table A does not say whether T47D or MCF7, read-out: Potency (DC50).
Turning to `O=C1CCC(N2C(=O)c3cc4c(cc3C2=O)CN(CC(=O)N2CCC3(CC2)CCN(c2ccc([C@H]5c6ccc7[nH]ncc7c6CC[C@H]5c5ccccc5)cc2)CC3)C4)C(=O)N1` (stereo partly drawn) [E 422, 2-(2,6-dioxopiperidin-3-yl)-6-(2-oxo-2-(9-(4-((6S,7R)-7-phenyl-6,7,8,9-tetrahydro-3H-benzo[e]indazol-6-yl)phenyl)-3,9-diazaspiro[5.5]undecan-3-yl)ethyl)-6,7-dihydropyrrolo[3,4-f]isoindole-1,3(2H,5H)-dione], the DC50 was more than 100 nM. Consider `C[C@@H]1Cc2cc(O)ccc2[C@@H](c2c(F)cc(C(=O)N3CC4(CCN(C(=O)CN5Cc6cc7c(cc6C5)C(=O)N(C5CCC(=O)NC5=O)C7=O)CC4)C3)cc2F)N1CC(F)F` (stereo partly drawn) [E 457, 6-(2-(2-(4-((1S,3R)-2-(2,2-difluoroethyl)-6-hydroxy-3-methyl-1,2,3,4-tetrahydroisoquinolin-1-yl)-3,5-difluorobenzoyl)-2,7-diazaspiro[3.5]nonan-7-yl)-2-oxoethyl)-2-(2,6-dioxopiperidin-3-yl)-6,7-dihydropyrrolo[3,4-f]isoindole-1,3(2H,5H)-dione], for which the DC50 lay within 10 to 100 nM.
